The NIST ThermoML archive (doi:10.1016/j.tca.2016.03.013)
Values joined by “and” are separate entries in the source; they are usually repeats but may differ in a detail not shown here. Equal entries are not always repeated.

Assays:
[1] = for vapor or sublimation pressure: Liquid, Rate of evaporation; for Normal melting temperature: DTA
[2] = Molar enthalpy of transition or fusion; conditions: DSC
[3] = molar heat capacity at constant pressure; conditions: 101.33 kPa, Small sample (50 mg) DSC

C1COCCOCCOCCOCCOCCO1 [1,4,7,10,13,16-hexaoxacyclooctadecane]
Conditions	Molar enthalpy of transition or fusion [kcal/mol]	Normal melting temperature [°C]	vapor or sublimation pressure
[1], 430 K	–	–	0.3102 kPa and 0.3376 kPa and 0.3358 kPa
[1], 435 K	–	–	0.4315 kPa and 0.4219 kPa and 0.4305 kPa
[1], 440 K	–	–	0.5414 kPa and 0.5488 kPa and 0.5487 kPa
[1], 445 K	–	–	0.6904 kPa and 0.6934 kPa and 0.6846 kPa
[1], 450 K	–	–	0.858 kPa and 0.8682 kPa and 0.8441 kPa
[1], 455 K	–	–	1.063 kPa and 1.052 kPa
[1], 460 K	–	–	1.315 kPa and 1.31 kPa and 1.317 kPa
[1], 465 K	–	–	1.616 kPa and 1.619 kPa and 1.602 kPa
[1], 470 K	–	–	1.972 kPa and 1.959 kPa and 1.967 kPa
[1], 475 K	–	–	2.394 kPa and 2.387 kPa and 2.399 kPa
[1], 480 K	–	–	2.879 kPa and 2.853 kPa and 2.858 kPa
[1], Crystal	–	39.17	–
[2], Crystal	9.56	–	–

[3]
Conditions	molar heat capacity at constant pressure [J/K/mol]
290 K, Crystal	380.3
291 K, Crystal	388.3
292 K, Crystal	394.8
293 K, Crystal	401.7
294 K, Crystal	409.8
295 K, Crystal	418.9
296 K, Crystal	428.4
297 K, Crystal	440.7
298 K, Crystal	457
298.15 K, Crystal	460
299 K, Crystal	479.4
315 K, Liquid	515
320 K, Liquid	516.5
325 K, Liquid	518.7
330 K, Liquid	521.5
335 K, Liquid	522.8
340 K, Liquid	524.9
345 K, Liquid	526.3
350 K, Liquid	527.8
355 K, Liquid	528.8
410 K, Liquid	562.4
415 K, Liquid	567.4
420 K, Liquid	573.6
425 K, Liquid	578.6
430 K, Liquid	582.6
435 K, Liquid	587.1
440 K, Liquid	590.4
445 K, Liquid	595.2
450 K, Liquid	599.4
455 K, Liquid	603
460 K, Liquid	607.7
465 K, Liquid	612.5
470 K, Liquid	617.4
475 K, Liquid	621.3
480 K, Liquid	626.4
485 K, Liquid	630.9
490 K, Liquid	635.9

[Al+3].[Al+3].[O-2].[O-2].[O-2] [aluminum oxide (Al2O3)]
[3], Crystal
Conditions	molar heat capacity at constant pressure [J/K/mol]
298.15 K	78.8
350 K	88.2
450 K	101.33

c1ccc2cc3ccccc3cc2c1 [anthracene]
[1]
Conditions	vapor or sublimation pressure [kPa]
494 K	5.794
496 K	6.242
498 K	6.713
500 K	7.174
502 K	7.662
504 K	8.173
506 K	8.694
508 K	9.227
510 K	9.775
512 K	10.31

c1ccc2c(c1)OCCOCCOCCOc1ccccc1OCCOCCOCCO2 [dibenzo-24-crown-8]
Conditions	Molar enthalpy of transition or fusion [kcal/mol]	Normal melting temperature [°C]	Triple point temperature [K]	vapor or sublimation pressure
[1], 545 K	–	–	–	0.114 kPa and 0.1131 kPa and 0.1132 kPa
[1], 550 K	–	–	–	0.1434 kPa and 0.1414 kPa and 0.1402 kPa
[1], 555 K	–	–	–	0.1736 kPa and 0.1757 kPa and 0.1786 kPa
[1], 560 K	–	–	–	0.2155 kPa and 0.2204 kPa and 0.2198 kPa
[1], 565 K	–	–	–	0.2674 kPa and 0.2714 kPa and 0.2733 kPa
[1], 570 K	–	–	–	0.3406 kPa and 0.3372 kPa and 0.3358 kPa
[1], 575 K	–	–	–	0.4082 kPa and 0.4133 kPa and 0.4103 kPa
[1], 580 K	–	–	–	0.4998 kPa and 0.5082 kPa and 0.5036 kPa
[1], 585 K	–	–	–	0.607 kPa and 0.6171 kPa and 0.6145 kPa
[1], 590 K	–	–	–	0.7381 kPa and 0.7487 kPa and 0.7461 kPa
[1], 595 K	–	–	–	0.9028 kPa and 0.897 kPa and 0.9062 kPa
[1], Crystal 1	–	100.72	–	–
[1], Crystal 2, DSC	–	–	346.32	–
[2], Crystal 1	12.8	–	–	–
[2], Crystal 2	0.234	–	–	–

[3]
Conditions	molar heat capacity at constant pressure [J/K/mol]
295 K, Crystal 2	602
298.15 K, Crystal 2	611.3
300 K, Crystal 2	615.7
305 K, Crystal 2	627.3
310 K, Crystal 2	638.8
315 K, Crystal 2	648
320 K, Crystal 2	658.1
325 K, Crystal 2	668.9
330 K, Crystal 2	681.3
335 K, Crystal 2	692.8
340 K, Crystal 2	706.2
355 K, Crystal 1	755.6
360 K, Crystal 1	771.8
365 K, Crystal 1	802
380 K, Liquid	921.2
385 K, Liquid	922.5
390 K, Liquid	927.3
395 K, Liquid	930.4
400 K, Liquid	934.6
405 K, Liquid	938.7
410 K, Liquid	943.5
415 K, Liquid	947.5
420 K, Liquid	956.1
425 K, Liquid	962.6
430 K, Liquid	968.4
435 K, Liquid	974.4
440 K, Liquid	979
445 K, Liquid	985.6
450 K, Liquid	990.7
455 K, Liquid	996.8
460 K, Liquid	1003.2
465 K, Liquid	1009.9
470 K, Liquid	1016.5
475 K, Liquid	1020.4
480 K, Liquid	1025.3
485 K, Liquid	1030.6
490 K, Liquid	1036.3

c1ccc2c(c1)OCCOCCOCCOCCOc1ccccc1OCCOCCOCCOCCO2 [dibenzo-30-crown-10]
Conditions	Molar enthalpy of transition or fusion [kcal/mol]	Normal melting temperature [°C]	vapor or sublimation pressure
[1], 545 K	–	–	0.0347 kPa and 0.0354 kPa
[1], 550 K	–	–	0.0405 kPa and 0.0424 kPa and 0.0433 kPa
[1], 555 K	–	–	0.0515 kPa and 0.0526 kPa and 0.0536 kPa
[1], 560 K	–	–	0.0655 kPa and 0.0614 kPa and 0.0649 kPa
[1], 565 K	–	–	0.0772 kPa and 0.0781 kPa and 0.0764 kPa
[1], 570 K	–	–	0.0969 kPa and 0.0924 kPa and 0.0946 kPa
[1], 575 K	–	–	0.116 kPa and 0.118 kPa and 0.1176 kPa
[1], 580 K	–	–	0.1429 kPa and 0.1455 kPa and 0.1444 kPa
[1], 585 K	–	–	0.1768 kPa and 0.1779 kPa and 0.188 kPa
[1], 590 K	–	–	0.2184 kPa and 0.2143 kPa and 0.2192 kPa
[1], 595 K	–	–	0.2675 kPa and 0.2625 kPa and 0.2682 kPa
[1], Crystal	–	104.5	–
[2], Crystal	20.7	–	–

[3]
Conditions	molar heat capacity at constant pressure [J/K/mol]
295 K, Crystal	668.8
298.15 K, Crystal	680.4
300 K, Crystal	686.9
305 K, Crystal	700.3
310 K, Crystal	715.3
315 K, Crystal	728.4
320 K, Crystal	741.6
325 K, Crystal	755.5
330 K, Crystal	769.9
335 K, Crystal	783.3
340 K, Crystal	797
345 K, Crystal	811.5
350 K, Crystal	826.4
355 K, Crystal	844.9
360 K, Crystal	868.2
390 K, Liquid	1144.6
395 K, Liquid	1148.9
400 K, Liquid	1153
405 K, Liquid	1159.5
410 K, Liquid	1164.6
415 K, Liquid	1169.3
420 K, Liquid	1179.2
425 K, Liquid	1186.2
430 K, Liquid	1187.9
435 K, Liquid	1195
440 K, Liquid	1196.6
445 K, Liquid	1199.2
450 K, Liquid	1201.2
455 K, Liquid	1200.9
460 K, Liquid	1201.6
465 K, Liquid	1202
470 K, Liquid	1201.9

c1ccc2c(c1)OCCOCCOc1ccccc1OCCOCCO2 [dibenzo[b,k][1,4,7,10,13,16]hexaoxacyclooctadecane]
Conditions	Molar enthalpy of transition or fusion [kcal/mol]	Normal melting temperature [°C]	vapor or sublimation pressure
[1], 545 K	–	–	0.5186 kPa and 0.4924 kPa and 0.5452 kPa
[1], 550 K	–	–	0.6057 kPa and 0.6363 kPa and 0.6637 kPa
[1], 555 K	–	–	0.7424 kPa and 0.8052 kPa and 0.7755 kPa
[1], 560 K	–	–	0.9045 kPa and 0.9751 kPa and 0.9424 kPa
[1], 565 K	–	–	1.095 kPa and 1.169 kPa and 1.137 kPa
[1], 570 K	–	–	1.323 kPa and 1.398 kPa and 1.369 kPa
[1], 575 K	–	–	1.589 kPa and 1.663 kPa and 1.638 kPa
[1], 580 K	–	–	1.903 kPa and 1.969 kPa and 1.948 kPa
[1], 585 K	–	–	2.258 kPa and 2.321 kPa and 2.316 kPa
[1], 590 K	–	–	2.673 kPa and 2.72 kPa and 2.717 kPa
[1], 595 K	–	–	3.164 kPa and 3.142 kPa and 3.16 kPa
[1], Crystal	–	162.50	–
[2], Crystal	13.4	–	–

[3]
Conditions	molar heat capacity at constant pressure [J/K/mol]
295 K, Crystal	434.6
298.15 K, Crystal	439.7
300 K, Crystal	443.6
305 K, Crystal	449
310 K, Crystal	457.8
315 K, Crystal	462.9
320 K, Crystal	468.4
325 K, Crystal	474.6
330 K, Crystal	481.5
335 K, Crystal	487.5
340 K, Crystal	494.7
345 K, Crystal	500.5
350 K, Crystal	506.2
355 K, Crystal	513.3
360 K, Crystal	520.1
365 K, Crystal	527
370 K, Crystal	533.2
375 K, Crystal	540.2
380 K, Crystal	547.6
385 K, Crystal	555.2
390 K, Crystal	563.2
395 K, Crystal	571.3
400 K, Crystal	580.1
405 K, Crystal	588.7
410 K, Crystal	596.8
415 K, Crystal	604.8
445 K, Liquid	755.4
450 K, Liquid	761
455 K, Liquid	768.7
460 K, Liquid	772.5
465 K, Liquid	780.2
470 K, Liquid	787
475 K, Liquid	792
480 K, Liquid	799.7
485 K, Liquid	806
490 K, Liquid	812.6

c1ccc2c(c1)ccc1ccccc12 [phenanthrene]
[1]
Conditions	vapor or sublimation pressure [kPa]
384 K	0.0567
388 K	0.0795
392 K	0.097
396 K	0.1144
400 K	0.146
404 K	0.1785
408 K	0.2069
412 K	0.2439
416 K	0.2926
420 K	0.3468
